Experimental data reported in the supplement of paper PMC11208160.

assay: recombinant barcode read abundance after kanamycin selection (control-corrected) (log10(CPM+1)); higher = more efficient recombination; sequences stand for … in AGTGCAGAGAAAATCGGCCAGTTTTCTCTGCCTGCAGTCCGCATGCCGT…AGATTTATGCAGCGGACTGCCTTTCTCCCAAAGTGATAAACCGGACAGTATCATGGACCGGTTTTCCCGGTAATCCGTATTTGCAAGGTTGGTTTCACT; site = the 11-nt target
Protocol: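 Pooled E. coli target-specificity screen for the IS621 bridge recombinase. Each library plasmid pairs an 11-nt target (CT core) with a bridge RNA whose target-binding loop (9-nt LTG + 4-nt RTG) is reprogrammed; the rest of the 177-nt WT IS621 bridge RNA scaffold is fixed. The plasmid is co-electroporated with a WT donor plasmid; recombinase is induced with 0.1 mM IPTG and recombinants are selected on kanamycin. Recombinant barcodes are sequenced, converted to CPM, averaged over two biological replicates and corrected by the unselected control CPM. Molecule = full bridge RNA written as DNA: LTG = specificity nt 1-9, RTG = reverse complement of specificity nt 8-11, in the WT scaffold.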
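Also: IS621 recombinase and bridge RNA in Escherichia coli cells.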

Sequence | recombinant barcode read abundance (log10)
AAGTCTCCTTGGGTTCTAACCTGTTGCCT (site AAGTCTCCTAG) | 0.64
AGACCTTCTTGGGTTCTAACCTGTTGCCT (site AGACCTTCTAG) | 1.55
CGAACGACTTGGGTTCTAACCTGTTGCCT (site CGAACGACTAA) | 0.157
TGGCAGCCTTGGGTTCTAACCTGTTGCCT (site TGGCAGTCTAG) | 0.0934
TAGGATTCTTGGGTTCTAACCTGTTGCGT (site TAGGATTCTAC) | 2.61
CCATCCTCTTGGGTTCTAACCTGTTGCTT (site CCATCCTCTAA) | 0.0749
GCGCTAACTTGGGTTCTAACCTGTTGCCT (site TCGCTAACTAG) | 0.169
GAGCGGACTTGGGTTCTAACCTGTTGCTA (site GAGCGAGCTTA) | 0.0384
ACTTCTTCTTGGGTTCTAACCTGTTGCCT (site ACTTCTACTCG) | 0.124
GTAGTAACTTGGGTTCTAACCTGTTGCCT (site GTAGTAACTAG) | 2.12
GAGCGAGCTTGGGTTCTAACCTGTTGCCG (site GAGCGAGCTCG) | 1.11
TTAGCGTCTTGGGTTCTAACCTGTTGCCT (site TTAGCATCTAG) | 1.47
ATCGGTCCTTGGGTTCTAACCTGTTGCCT (site ATTGGTCCTAG) | 0.174
AATTCGACTTGGGTTCTAACCTGTTGCCT (site ACTTCGACTAG) | 0.0747
TCGTCACCTTGGGTTCTAACCTGTTGCCT (site CCGTCACCTAG) | 0.332
GCGGGATCTTGGGTTCTAACCTGTTGCCT (site TCGGGATCTAG) | 0.174
ATGGTGGCTTGGGTTCTAACCTGTTGCCT (site ATGGTGACTAG) | 1.17
TCACCTTCTTGGGTTCTAACCTGTTGCCT (site TCACTTCCTAG) | 0.0695
GTATCAGCTTGGGTTCTAACCTGTTGCCT (site GTATCAGCTAG) | 1.25
AGATTAGCTTGGGTTCTAACCTGTTGCCG (site GCGGATCCTTA) | 0.0251
ACCCTAACTTGGGTTCTAACCTGTTGCGG (site ACCCTAACTCC) | 1.16

Sequence | recombinant barcode read abundance (log10)
CATCAGCCTTGGGTTCTAACCTGTTGCGT (site CATCAGCCTAC) | 1.63
TTGACGACTTGGGTTCTAACCTGTTGCCA (site TTGGCGACTTG) | 0.116
AACTTAACTTGGGTTCTAACCTGTTGCCT (site AACTTAACTAG) | 0.531
GAGCAACCTTGGGTTCTAACCTGTTGCCG (site GAGCCACCTTG) | 0.017
ATAAAGACTTGGGTTCTAACCTGTTGCCT (site ATTAAGACTAG) | 0.586
TGTGACTCTTGGGTTCTAACCTGTTGCCT (site TGCGACTCTAG) | 0.0199
CTAACTACTTGGGTTCTAACCTGTTGCTT (site AGTTGGCCTCT) | 0.41
TAGGCTACTTGGGTTCTAACCTGTTGCAG (site TAGGCTACTCT) | 1.97
CGTTAACCTTGGGTTCTAACCTGTTGCGT (site CGTCAACCTAC) | 1.48
CGCCTCGCTTGGGTTCTAACCTGTTGCCT (site CGCCTCCCTAG) | 0.16
ATCGGAACTTGGGTTCTAACCTGTTGCCT (site ATCGGACCTAG) | 0.0301
CTTCGCACTTGGGTTCTAACCTGTTGCCT (site CATCGCACTAG) | 0.0381
GAGCTAGCTTGGGTTCTAACCTGTTGCGC (site GAGCTAGCTAC) | 0.109
ACCAAGACTTGGGTTCTAACCTGTTGCCG (site ACCAAGACTCG) | 0.373
GTTTCGTCTTGGGTTCTAACCTGTTGCCT (site GTTTCGTCTAG) | 0.0924
AAGTGAGCTTGGGTTCTAACCTGTTGCAG (site AATAGAGCTCT) | 0.12
TTCTCTCCTTGGGTTCTAACCTGTTGCCT (site TTCTGTCCTAG) | 0.00855
CTGTTGTCTTGGGTTCTAACCTGTTGCCA (site CTGGTGTCTTG) | 0.0643
GGGCCTTCTTGGGTTCTAACCTGTTGCAT (site GGGCCTTCTAT) | 1.07
GTTTGAGCTTGGGTTCTAACCTGTTGCCT (site GTTAGAGCTAG) | 0.231
CCGCGGACTTGGGTTCTAACCTGTTGCTA (site TAAAACCCTAT) | 0.0107

Sequence | recombinant barcode read abundance (log10)
ACGCGAGCTTGGGTTCTAACCTGTTGCCG (site ACGCGAGCTCT) | 0.215
CTCGACACTTGGGTTCTAACCTGTTGCCT (site CTCGACACTAG) | 1.82
TATAAGTCTTGGGTTCTAACCTGTTGCCT (site TATAAGTCTAG) | 0.0571
TTACGAGCTTGGGTTCTAACCTGTTGCGG (site TTACGTGCTCC) | 0.14
GAGCGATCTTGGGTTCTAACCTGTTGCGT (site GAGTGAGCTAC) | 0.0311
GGATTCACTTGGGTTCTAACCTGTTGCCA (site GGATCCACTTG) | 0.0631
TAGTTCACTTGGGTTCTAACCTGTTGCCA (site TAGTTAACTTG) | 0.273
GGGCCTACTTGGGTTCTAACCTGTTGCTT (site GGGCCTACTGA) | 0.255
TAGTGTGCTTGGGTTCTAACCTGTTGCCT (site TAGTGTCCTAG) | 0.137
AGGAGCCCTTGGGTTCTAACCTGTTGCTA (site AGGAGCCCTAA) | 0.0121
TTCTTTCCTTGGGTTCTAACCTGTTGCCT (site TTCTCTCCTAG) | 0.0684
CTAGACTCTTGGGTTCTAACCTGTTGCAG (site CTAGACTCTAT) | 0.88
CGGCTGCCTTGGGTTCTAACCTGTTGCGG (site GTATCCGCTTG) | 0.446
TCTTGGACTTGGGTTCTAACCTGTTGCTA (site TCTTGGACTTA) | 0.0613
CCAATTGCTTGGGTTCTAACCTGTTGCCT (site CTAATTGCTAG) | 0.0541
TGTAATGCTTGGGTTCTAACCTGTTGCCT (site TGTAATCCTAG) | 0.181
TATAGAGCTTGGGTTCTAACCTGTTGCGG (site TAAAGAGCTCC) | 0.358
TACCGCTCTTGGGTTCTAACCTGTTGCTT (site TACGGCTCTAA) | 0.043
TAGTAGTCTTGGGTTCTAACCTGTTGCGT (site TAGTAGTCTAT) | 2.34
TGGTACCCTTGGGTTCTAACCTGTTGCTA (site TGGTACCCTTA) | 1.36
TAGTGTCCTTGGGTTCTAACCTGTTGCCT (site TAGTGTGCTAG) | 0.521

Sequence | recombinant barcode read abundance (log10)
TTCTTTCCTTGGGTTCTAACCTGTTGCCT (site TTCTTTCCTAG) | 0.11
TAGGCATCTTGGGTTCTAACCTGTTGCTC (site TAGCCATCTGA) | 0.36
TACAGAGCTTGGGTTCTAACCTGTTGCGG (site TACAGAGCTCC) | 2.36
GGTAGGCCTTGGGTTCTAACCTGTTGCTT (site GGTAGATCTAA) | 0.0963
CATGAGACTTGGGTTCTAACCTGTTGCGG (site CATGAGACTCC) | 2.18
AACCTAGCTTGGGTTCTAACCTGTTGCTA (site ACCCTAGCTGA) | 0.0657
CTGAGGCCTTGGGTTCTAACCTGTTGCCT (site TTGAGGCCTAG) | 0.299
GCCGGGGCTTGGGTTCTAACCTGTTGCCG (site GCCGGGGCTCG) | 0.186
GGGGCACCTTGGGTTCTAACCTGTTGCGT (site GGGGCACCTAC) | 3.72
AGCGAATCTTGGGTTCTAACCTGTTGCCT (site AGTGAATCTAG) | 0.158
TCGCACACTTGGGTTCTAACCTGTTGCCT (site CCGCACACTAG) | 0.324
TATGCGGCTTGGGTTCTAACCTGTTGCCT (site TATGAGGCTAG) | 0
GCGTGTCCTTGGGTTCTAACCTGTTGCCA (site CCGTGTCCTCG) | 0.0431
GTTACGGCTTGGGTTCTAACCTGTTGCCT (site GTTACGGCTAG) | 0.0907
TGGTAGTCTTGGGTTCTAACCTGTTGCGT (site AAAGCTACTTA) | 0.0198
CACCCACCTTGGGTTCTAACCTGTTGCCT (site CACCCACCTAG) | 1.66
TAGTGTCCTTGGGTTCTAACCTGTTGCGT (site TAGTATCCTAC) | 0.309
GAGGACTCTTGGGTTCTAACCTGTTGCCC (site GAGGACTCTAG) | 2
CCTGATTCTTGGGTTCTAACCTGTTGCCT (site CCTGAGTCTAG) | 0.107
